Several values for one entry are separate records, joined by “and”; a condition that tells them apart may be missing. Equal values may be shown once. Inconclusive results and toxic doses are left out. Rule as the data show it: active = T/C of 150% or more; inactive = T/C below 125%.
Test system: L1210 leukemia ip in BDF1 mice, survival T/C
Test: NCI In Vivo Anticancer Drug Screen. Data for tumor model L1210 Leukemia (intraperitoneal) in B6D2F1 (BDF1) mice
Conditions: higher = longer survival
Procedure, shortened: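 Tumor cells were implanted, animals were treated, and survival was followed. The result divides the treated measurement by the vehicle-control measurement.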

[1] = endpoint: mean survival time, dose: 100.0 mg/kg/injection, schedule: Q01DX001 (ip), vehicle: saline
[2] = endpoint: mean survival time, dose: 200.0 mg/kg/injection, schedule: Q01DX001 (ip), vehicle: saline
[3] = endpoint: mean survival time, dose: 400.0 mg/kg/injection, schedule: Q01DX001 (ip), vehicle: saline
[4] = endpoint: mean survival time, dose: 100.0 mg/kg/injection, schedule: Q04DX003 (ip), vehicle: saline with Tween-80
[5] = endpoint: mean survival time, dose: 200.0 mg/kg/injection, schedule: Q04DX003 (ip), vehicle: saline with Tween-80
[6] = endpoint: mean survival time, dose: 400.0 mg/kg/injection, schedule: Q04DX003 (ip), vehicle: saline with Tween-80
[7] = endpoint: mean survival time, dose: 100.0 mg/kg/injection, schedule: Q04DX002 (ip), vehicle: saline with Tween-80
[8] = endpoint: mean survival time, dose: 400.0 mg/kg/injection, schedule: Q04DX002 (ip), vehicle: saline with Tween-80

Measured: T/C

CC1=Nc2c([nH]cnc2=S)NN1
inactive: endpoint: mean survival time, dose: 6.25 mg/kg/injection, schedule: Q01DX009 (ip), vehicle: saline with Tween-80 94 % of control | endpoint: mean survival time, dose: 6.25 mg/kg/injection, schedule: Q04DX003 (ip), vehicle: saline with Tween-80 102 % of control | endpoint: mean survival time, dose: 12.5 mg/kg/injection, schedule: Q01DX001 (ip), vehicle: saline with Tween-80 87 % of control | endpoint: mean survival time, dose: 12.5 mg/kg/injection, schedule: Q01DX009 (ip), vehicle: saline with Tween-80 91 % of control | endpoint: mean survival time, dose: 12.5 mg/kg/injection, schedule: Q04DX003 (ip), vehicle: saline with Tween-80 98 % of control | endpoint: mean survival time, dose: 25.0 mg/kg/injection, schedule: Q01DX001 (ip), vehicle: saline with Tween-80 102 % of control | endpoint: mean survival time, dose: 25.0 mg/kg/injection, schedule: Q04DX003 (ip), vehicle: saline with Tween-80 100 % of control

Clc1ccc(C#CP(C#Cc2ccc(Cl)cc2)C#Cc2ccc(Cl)cc2)cc1
inactive: endpoint: mean survival time, dose: 50.0 mg/kg/injection, schedule: Q01DX009 (ip), vehicle: saline with Tween-80 88 % of control | endpoint: mean survival time, dose: 100.0 mg/kg/injection, schedule: Q01DX009 (ip), vehicle: saline with Tween-80 103 % of control

O=C(OC12CCN(CC1)CC2)c1ccccc1
inactive: endpoint: mean survival time, dose: 9.5 mg/kg/injection, schedule: Q01DX001 (ip), vehicle: saline 95 % of control | endpoint: mean survival time, dose: 19.0 mg/kg/injection, schedule: Q01DX001 (ip), vehicle: saline 95 % of control

OC(CF)C(O)C(O)C(O)CF (centres undefined)
inactive: endpoint: mean survival time, dose: 75.0 mg/kg/injection, schedule: Q01DX009 (ip), vehicle: saline 95 % of control | [1] 101 % of control | [2] 93 % of control | endpoint: mean survival time, dose: 300.0 mg/kg/injection, schedule: Q01DX009 (ip), vehicle: saline 101 % of control | [3] 93 % of control

C=CC1CC=CCC1 (centres undefined) (tested in a mixture with another compound)
inactive: endpoint: mean survival time, dose: 50.0 mg/kg/injection, schedule: Q01DX001 (ip), vehicle: carboxymethylcellulose (CMC) 98 % of control | endpoint: mean survival time, dose: 100.0 mg/kg/injection, schedule: Q01DX001 (ip), vehicle: carboxymethylcellulose (CMC) 98 % of control | endpoint: mean survival time, dose: 200.0 mg/kg/injection, schedule: Q01DX001 (ip), vehicle: carboxymethylcellulose (CMC) 98 % of control | endpoint: mean survival time, dose: 400.0 mg/kg/injection, schedule: Q01DX001 (ip), vehicle: carboxymethylcellulose (CMC) 108 % of control

O=C(CCCN1CC=C(n2c(=O)[nH]c3ccccc32)CC1)c1ccc(F)cc1
inactive: endpoint: mean survival time, dose: 6.25 mg/kg/injection, schedule: Q01DX009 (ip), vehicle: Klucel (hydroxypropylcellulose) (HPC) 100 % of control | endpoint: mean survival time, dose: 6.25 mg/kg/injection, schedule: Q04DX003 (ip), vehicle: Klucel (hydroxypropylcellulose) (HPC) 103 % of control | endpoint: mean survival time, dose: 12.5 mg/kg/injection, schedule: Q01DX009 (ip), vehicle: Klucel (hydroxypropylcellulose) (HPC) 104 % of control | endpoint: mean survival time, dose: 12.5 mg/kg/injection, schedule: Q04DX003 (ip), vehicle: Klucel (hydroxypropylcellulose) (HPC) 103 % of control | endpoint: mean survival time, dose: 25.0 mg/kg/injection, schedule: Q01DX009 (ip), vehicle: Klucel (hydroxypropylcellulose) (HPC) 98 % of control | endpoint: mean survival time, dose: 25.0 mg/kg/injection, schedule: Q04DX003 (ip), vehicle: Klucel (hydroxypropylcellulose) (HPC) 103 % of control | endpoint: mean survival time, dose: 50.0 mg/kg/injection, schedule: Q01DX009 (ip), vehicle: Klucel (hydroxypropylcellulose) (HPC) 102 % of control | endpoint: mean survival time, dose: 50.0 mg/kg/injection, schedule: Q04DX003 (ip), vehicle: Klucel (hydroxypropylcellulose) (HPC) 106 % of control | endpoint: mean survival time, dose: 100.0 mg/kg/injection, schedule: Q01DX009 (ip), vehicle: Klucel (hydroxypropylcellulose) (HPC) 94 % of control | endpoint: mean survival time, dose: 100.0 mg/kg/injection, schedule: Q04DX003 (ip), vehicle: Klucel (hydroxypropylcellulose) (HPC) 101 % of control and 111 % of control

Nc1ncnc2c1ncn2C1OCC(O)C1CO (centres undefined)
inactive: endpoint: mean survival time, dose: 50.0 mg/kg/injection, schedule: Q01DX001 (ip), vehicle: saline 111 % of control | [1] 109 % of control | [2] 105 % of control

Cc1ccc(Sc2cccc3c2C(=O)c2c(Sc4ccc(C)cc4)cccc2C3=O)cc1
inactive: [4] 86 % of control | [5] 91 % of control | [6] 88 % of control

CCOC(=O)/C=C/C(=O)O.[Zn+2]
inactive: endpoint: mean survival time, dose: 12.5 mg/kg/injection, schedule: Q04DX003 (ip), vehicle: saline 96 % of control and 91 % of control | endpoint: mean survival time, dose: 50.0 mg/kg/injection, schedule: Q04DX003 (ip), vehicle: saline 96 % of control

O=C(c1ccc([N+](=O)[O-])cc1)N1C2CCCCCCC21 (centres undefined)
inactive: endpoint: mean survival time, dose: 50.0 mg/kg/injection, schedule: Q01DX009 (ip), vehicle: saline 121 % of control | [1] 94 % of control | endpoint: mean survival time, dose: 100.0 mg/kg/injection, schedule: Q01DX009 (ip), vehicle: saline 113 % of control | [2] 89 % of control | endpoint: mean survival time, dose: 200.0 mg/kg/injection, schedule: Q01DX009 (ip), vehicle: saline 110 % of control

CCCCCCCC(=O)OCC(=O)[C@]1(O)Cc2c(O)c3c(c(O)c2[C@@H](OC2CC(N)C(O)C(C)O2)C1)C(=O)c1c(OC)cccc1C3=O (some centres undefined)
inactive: endpoint: median survival time, dose: 0.25 mg/kg/injection, schedule: Q03HX024 (ip), vehicle: water 110 % of control | endpoint: median survival time, dose: 1.0 mg/kg/injection, schedule: Q03HX024 (ip), vehicle: water 109 % of control | endpoint: median survival time, dose: 1.0 mg/kg/injection, schedule: Q04DX003 (ip), vehicle: water 115 % of control | endpoint: median survival time, dose: 2.0 mg/kg/injection, schedule: Q03HX008 (ip), vehicle: water 114 % of control | endpoint: median survival time, dose: 2.0 mg/kg/injection, schedule: Q04DX003 (ip), vehicle: water 124 % of control | endpoint: median survival time, dose: 2.5 mg/kg/injection, schedule: Q01DX001 (ip), vehicle: water 121 % of control | endpoint: median survival time, dose: 2.5 mg/kg/injection, schedule: Q08DX002 (ip), vehicle: water 101 % of control | endpoint: median survival time, dose: 4.0 mg/kg/injection, schedule: Q01DX009 (ip), vehicle: water 88 % of control | endpoint: median survival time, dose: 4.0 mg/kg/injection, schedule: Q04DX003 (ip), vehicle: water 111 % of control | endpoint: median survival time, dose: 5.0 mg/kg/injection, schedule: Q08DX002 (ip), vehicle: water 121 % of control | endpoint: median survival time, dose: 10.0 mg/kg/injection, schedule: Q01DX001 (ip), vehicle: water 121 % of control | endpoint: median survival time, dose: 10.0 mg/kg/injection, schedule: Q08DX002 (ip), vehicle: water 121 % of control | endpoint: median survival time, dose: 20.0 mg/kg/injection, schedule: Q08DX002 (ip), vehicle: water 96 % of control

CONP(=O)(NOC)c1ccccc1
inactive: [1] 103 % of control | [2] 95 % of control | [3] 90 % of control

Nc1ccccc1Sc1ccc2c3c(cccc13)C(=O)N(c1ccccc1)C2=O
inactive: [7] 87 % of control | [8] 94 % of control

ClC1(c2ccccc2)c2ccccc2C(Cl)(c2ccccc2)c2ccccc21 (centres undefined)
inactive: [7] 98 % of control | endpoint: mean survival time, dose: 200.0 mg/kg/injection, schedule: Q04DX002 (ip), vehicle: saline with Tween-80 92 % of control | [8] 92 % of control

COC(=O)C1=C(C)NC(=S)NC1c1ccco1 (centres undefined)
inactive: [4] 95 % of control | [5] 97 % of control | [6] 97 % of control

COC(=O)c1cccc2c1-c1ccccc1C(Br)C2Br (centres undefined)
inactive: [1] 111 % of control | endpoint: mean survival time, dose: 100.0 mg/kg/injection, schedule: Q04DX003 (ip), vehicle: saline 96 % of control | [2] 95 % of control | endpoint: mean survival time, dose: 200.0 mg/kg/injection, schedule: Q04DX003 (ip), vehicle: saline 92 % of control | [3] 97 % of control | endpoint: mean survival time, dose: 400.0 mg/kg/injection, schedule: Q04DX003 (ip), vehicle: saline 94 % of control

CCN1C(=O)C(CC)(Cc2ccccc2)C(=O)NC1=S (centres undefined)
inactive: endpoint: mean survival time, dose: 75.0 mg/kg/injection, schedule: Q01DX001 (ip), vehicle: alkali diluted with saline 103 % of control | endpoint: mean survival time, dose: 75.0 mg/kg/injection, schedule: Q01DX001 (ip), vehicle: other 108 % of control | endpoint: mean survival time, dose: 150.0 mg/kg/injection, schedule: Q01DX001 (ip), vehicle: alkali diluted with saline 98 % of control | endpoint: mean survival time, dose: 150.0 mg/kg/injection, schedule: Q01DX001 (ip), vehicle: other 105 % of control | endpoint: mean survival time, dose: 300.0 mg/kg/injection, schedule: Q01DX001 (ip), vehicle: alkali diluted with saline 108 % of control | endpoint: mean survival time, dose: 300.0 mg/kg/injection, schedule: Q01DX001 (ip), vehicle: other 103 % of control
